In patent publication US7582760B2, “Benzimidazolone and dihydroindolone derivatives and uses thereof” (Roche Palo Alto LLC, priority 2005, dated 2009):
Counter-ions that a name gives are not always drawn.

Key:
[1] = target: T1, recombinant human 5-HT2A receptor (Homo sapiens, UniProt P28223); test: Radioligand binding, competition for [3H]Ketanserin in CHO-K1 cell membranes; conditions: [3H]Ketanserin displacement, read-out: pKi for the 5-HT2A receptor (converted)
T1 construct: expressed in transfected cells; membranes
Procedure: (§1) The binding activity of compounds of this invention in vitro was determined as follows. Duplicate determinations of 5-HT6 ligand affinity were made by competing for binding of [^3H]LSD in cell membranes derived from HEK293 cells stably expressing recombinant human 5-HT6 receptor. Duplicate determinations of 5-HT2A ligand affinity were made by competing for binding of [^3H]Ketanserin (3-(2-(4-(4-fluorobenzoyl)piperidinol)ethyl)-2,4(1H,3H)-quinazolinedione) in cell membranes derived from CHO-K^1 cells stably expressing recombinant human 5-HT2A receptor. Membranes were prepared from HEK 293 cell lines by the method described by Monsma et al., Molecular Pharmacology, Vol. 43 pp. 320-327 (1993), and from CHO-K1 cell lines as described by Bonhaus et al., Br J. Pharmacol. June; 115(4):622-8 (1995).
(§2) For estimation of affinity at the 5-HT6 receptor, all determinations were made in assay buffer containing 50 mM Tris-HCl, 10 mM MgSO4, 0.5 mM EDTA, 1 mM ascorbic acid, pH 7.4 at 37° C., in a 250 microliter reaction volume. […]
(§3) Assay tubes containing [^3H] […] LSD or [^3H]Ketanserin were determined as radioactive counts per minute using Packard TopCount.
(§4) Displacement of [^3H]LSD or [^3H]Ketanserin from the binding sites was quantified by fitting concentration-binding data to a 4-parameter logistic equation: […]

[2] = target: T2, recombinant human 5-HT6 receptor (Homo sapiens, UniProt P50406); test: Radioligand binding, competition for [3H]LSD in HEK293 cell membranes; conditions: receptor not printed for this value in the sentence; radioligand binding of Example 13
T2 construct: expressed in transfected cells; membranes
Procedure: as §1, §2, §3, §4

T2 sequence (P50406 whole entry): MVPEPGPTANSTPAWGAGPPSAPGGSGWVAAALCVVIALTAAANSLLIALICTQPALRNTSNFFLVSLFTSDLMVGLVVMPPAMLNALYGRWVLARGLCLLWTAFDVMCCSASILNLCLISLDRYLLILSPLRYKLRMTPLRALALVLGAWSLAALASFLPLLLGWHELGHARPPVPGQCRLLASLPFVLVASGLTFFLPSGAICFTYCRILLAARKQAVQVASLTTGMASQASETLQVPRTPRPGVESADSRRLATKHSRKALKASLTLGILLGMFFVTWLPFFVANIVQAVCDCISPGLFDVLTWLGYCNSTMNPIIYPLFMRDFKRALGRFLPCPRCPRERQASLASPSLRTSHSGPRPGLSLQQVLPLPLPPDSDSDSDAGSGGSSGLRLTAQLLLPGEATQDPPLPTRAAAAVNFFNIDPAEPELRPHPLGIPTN
T1 sequence (P28223 whole entry): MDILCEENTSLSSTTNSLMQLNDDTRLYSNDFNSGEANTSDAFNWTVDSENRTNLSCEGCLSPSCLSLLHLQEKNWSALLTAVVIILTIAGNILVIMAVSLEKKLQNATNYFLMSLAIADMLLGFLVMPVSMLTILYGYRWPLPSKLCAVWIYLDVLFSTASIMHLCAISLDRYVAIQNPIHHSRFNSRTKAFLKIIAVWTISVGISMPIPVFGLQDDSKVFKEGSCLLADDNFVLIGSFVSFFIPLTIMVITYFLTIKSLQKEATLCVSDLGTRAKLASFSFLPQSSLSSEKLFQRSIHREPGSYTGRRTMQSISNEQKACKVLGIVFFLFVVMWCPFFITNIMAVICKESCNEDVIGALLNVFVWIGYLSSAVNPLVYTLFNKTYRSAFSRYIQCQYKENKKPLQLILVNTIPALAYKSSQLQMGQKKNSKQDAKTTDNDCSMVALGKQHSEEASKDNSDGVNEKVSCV

Row | Structure (SMILES) | melting point | further results
1 | O=C1Cc2c(N3CCNCC3)cccc2N1Cc1ccc(F)c(F)c1 [1-(3,4-Difluoro-benzyl)-4-piperazin-1-yl-1,3-dihydro-indol-2-one] |  | Ki [1]: ~0.331 nM
2 | O=c1[nH]c2c(OC3CNC3)cccc2n1Cc1ccccc1 | 181 to 184 °C | 
3 | O=c1[nH]c2c(N3CCNCC3)ccc(Cl)c2n1Cc1cccc(F)c1 [7-Chloro-1-(3-fluoro-benzyl)-4-piperazin-1-yl-1,3-dihydro-benzoimidazol-2-one] |  | Ki [2]: ~0.331 nM
4 | O=c1[nH]c2c(OCC3CNC3)cccc2n1Cc1ccccc1 (as salt: hydrochloride) | 210 to 216.6 °C | 
5 | CNCCOc1cccc2c1n(C)c(=O)n2Cc1ccccc1 (as salt: hydrochloride) | 203.8 to 205.1 °C | 
